Holding throughout (format): biochemical
For experiment [1], the target named is T1, MMP-13 (Homo sapiens, UniProt P45452).
T1 construct: catalytic domain (^104Tyr˜^267Gly) was amplified with RT-PCR; His-tag; enterokinase digestion-site
Briefly: Assay for inhibitory activities on MMPs (fluorogenic peptide substrate), MMP-13. On the procedure:
In regard to MMP-13, mRNA was prepared from carcinoma cell SW1353 derived from human cartilage stimulate by IL-1 and TNF, and catalytic domain (^[…]) was amplified with RT-PCR. This was cloned in Escherichia coli expression vector […] inserted with His-tag sequence and enterokinase digestion-site, induced and expressed by IPTG (Isopropyl-β-D-thiogalactopyranoside) and expressed in an insoluble fraction. Isolation of MMP-13 from an insoluble fraction was carried out by dissolving in modifier (6 M urea) by a usual method and purification with metal chelate chromatography (Ni […] Sepharose). And then removing modifier (6 M urea) with dialyze and refolding of the enzyme spontaneously gave activated MMP-13. The enzymatic activity on MMPs was analyzed by the method described in “C. Graham Knight, Frances Willenbrock and Gillian Murphy: A novel coumarin-labelled peptide for sensitive continuous assays of the matrix metalloproteinases: FEBS LETT., 296, (1992), 263-266”. The substrate: MOCAc-[…] was purchased from Peptide Institute, Inc., Osaka, Japan. The measurement of the inhibitory activities (IC50) was carried out by the following four methods; (A) Reaction with substrate, enzyme (MMPs) and inhibitor (B) Reaction with substrate and inhibitor, without enzyme (C) Reaction with substrate and enzyme (MMPs), without inhibitor (D) Reaction with substrate only IC50 values were calculated by using the following formula and each fluorescence values of above four methods (A to D). % inhibition={1-(A-B)/(C-D)}×100 IC50 means the concentration required to inhibit 50% of the enzyme activity. The value of inhibitory activity against MMP-2, MMP-8, MMP-9, MMP-12, and MMP-13 measured by above mentioned methods are shown in Table 25 and 26.

In experiment [2] the target is T2, MMP-2 (Homo sapiens, UniProt P08253).
T2 sequence (P08253 110-660): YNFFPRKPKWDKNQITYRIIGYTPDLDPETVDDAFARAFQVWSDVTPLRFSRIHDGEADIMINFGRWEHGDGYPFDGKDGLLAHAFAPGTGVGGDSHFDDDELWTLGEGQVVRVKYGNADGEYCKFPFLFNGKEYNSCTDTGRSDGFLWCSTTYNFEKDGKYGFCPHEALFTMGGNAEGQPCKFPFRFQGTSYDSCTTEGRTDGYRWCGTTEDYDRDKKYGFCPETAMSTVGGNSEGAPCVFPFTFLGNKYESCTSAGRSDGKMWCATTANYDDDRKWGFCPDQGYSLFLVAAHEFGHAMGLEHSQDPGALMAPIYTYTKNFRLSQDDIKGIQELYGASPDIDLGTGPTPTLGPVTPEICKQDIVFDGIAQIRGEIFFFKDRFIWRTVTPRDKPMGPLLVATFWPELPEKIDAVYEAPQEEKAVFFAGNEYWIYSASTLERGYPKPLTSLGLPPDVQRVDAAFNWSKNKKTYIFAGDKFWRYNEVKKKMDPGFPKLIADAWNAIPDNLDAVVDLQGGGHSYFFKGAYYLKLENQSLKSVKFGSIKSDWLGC
Briefly: Assay for inhibitory activities on MMPs (fluorogenic peptide substrate), MMP-2. The protocol:
MMP-2 was purchased from Calbiochem-Novabiochem International, Inc.
(§1) The enzymatic activity on MMPs was analyzed by the method described in “C. Graham Knight, Frances Willenbrock and Gillian Murphy: A novel coumarin-labelled peptide for sensitive continuous assays of the matrix metalloproteinases: FEBS LETT., 296, (1992), 263-266”. The substrate: MOCAc-Pro-Leu-Gly-Leu-A2Pr(DNP)-Ala-Arg-NH2 was purchased from Peptide Institute, Inc., Osaka, Japan. The measurement of the inhibitory activities (IC50) was carried out by the following four methods;
(§2) (A) Reaction with substrate, enzyme (MMPs) and inhibitor
(§3) (B) Reaction with substrate and inhibitor, without enzyme
(§4) (C) Reaction with substrate and enzyme (MMPs), without inhibitor
(§5) (D) Reaction with substrate only
(§6) IC50 values were calculated by using the following formula and each fluorescence values of above four methods (A to D).
(§7) % inhibition={1-(A−B)/(C−D)}×100
(§8) IC50 means the concentration required to inhibit 50% of the enzyme activity.
(§9) The value of inhibitory activity against MMP-2, MMP-8, MMP-9, MMP-12, and MMP-13 measured by above mentioned methods are shown in Table 25 and 26.

In experiment [3] the target is T3, MMP-12 (Homo sapiens, UniProt P39900).
T3 construct: In regard to MMP-12, catalytic domain (^100Phe˜^263Gly) was amplified with RT-PCR; His-tag; enterokinase digestion-site
T3 sequence (P39900 100-263): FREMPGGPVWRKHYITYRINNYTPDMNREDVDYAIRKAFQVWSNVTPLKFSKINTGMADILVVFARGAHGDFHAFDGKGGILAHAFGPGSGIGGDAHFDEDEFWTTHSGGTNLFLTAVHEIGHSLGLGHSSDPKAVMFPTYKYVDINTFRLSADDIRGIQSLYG
Briefly: Assay for inhibitory activities on MMPs (fluorogenic peptide substrate), MMP-12. On the procedure:
In regard to MMP-12, catalytic domain (^100Phe˜^263Gly) was amplified with RT-PCR from Human Placenta Total RNA. This was cloned in Escherichia coli expression vector pTrc99AHE inserted with His-tag sequence and enterokinase digestion-site, induced and expressed by IPTG (Isopropyl-β-D-thiogalactopyranoside) and expressed in an insoluble fraction. Isolation of MMP-12 from an insoluble fraction was carried out by dissolving in modifier (6 M urea) by a usual method and purification with metal chelate chromatography (Ni Chelateing Sepharose). And then removing modifier (6 M urea) with dialysis and refolding of the enzyme spontaneously gave activated MMP-12.
as §1, §2, §3, §4, §5, §6, §7, §8, §9

Experiment [4] has as its target MMP-9 (Homo sapiens, UniProt P14780). Briefly: Assay for inhibitory activities on MMPs (fluorogenic peptide substrate), MMP-9.
Excerpt: MMP-9 was isolated and purified by the procedure of Y. Okada et al. (Yasunori Okada, Yukio Gonoji, Katsumi Naka, Katsuro Tomita, Isao Nakanishi, Kazushi Iwata, Kyoko Yamashita, and Taro Hayakawa: Matrix metalloproteinase 9 (92-kDa gelatinase/type IV collagenase) from HT1080 human fibrosarcoma cells. Purification and activation of the precursor and enzymic properties, J. Biol. Chem., 1992, 267, 21712-21719) in combination with other following methods: 1) Yasunori Okada, Tatsuhisa Morodomi, Jan J, Enghild, Ko Suzuki, Atsushi Yasui, Isao Nakanishi, Guy Salvesen and Hideaki Nagase: Matrix metalloproteinase 2 from human rheumatoid synovial fibroblasts. Purification and activation of the precursor and enzymic properties, Eur. J. Biochem., 1990, 194, 721-730; 2) Robin V Ward, Rosalind M Hembry, John J Reynolds and Gillian Murphy: The purification of tissue inhibitor of metalloproteinase-2 from its 72 kDa progelatinase complex. Biochem. J., 1991, 278, 179-187. In detail, human fibrosarcoma ATCC HT1080 cell line was cultured to confluent in Dulbecco's Modified Medium (DMEM) containing 10% fetal-calf serum at 37° C. for 48 hours. Subsequently, the medium of confluent culture was changed to serum-free DMEM medium. To obtain MMP-9, phorbol-12-myristate-13-acetate (TPA) must be added to this serum-free DMEM medium at a concentration of 50 ng/ml. The TPA-treated medium was centrifuged at 3000 rpm for 15 min, and the supernatant was concentrated to 450 ml by a Toyo-Roshi UP-20 apparatus with an ultrafiltration membrane. Then, proMMP-9 in this concentrated solution was purified by using columns of Gelatin-Sepharose and Concanavalin A-Sepharose. The pool containing proMMP-9 was dialyzed, concentrated (Toyo-Roshi UP-20) and applied to columns of Sephacryl S-200 and Green A matrix for the separation from TIMPs. The obtained proMMP-9 fraction was activated by TPCK-Trypsin (Final conc.: 3 μg/501 React Mix.).
as §1, §2, §3, §4, §5, §6, §7, §8, §9

For experiment [5], the target named is T4, MMP-8 (Homo sapiens, UniProt P22894).
T4 construct: In regard to MMP-8, catalytic domain (^99Phe˜^262Gly) was amplified with PCR; His-tag; enterokinase digestion-site
T4 sequence (P22894 99-262): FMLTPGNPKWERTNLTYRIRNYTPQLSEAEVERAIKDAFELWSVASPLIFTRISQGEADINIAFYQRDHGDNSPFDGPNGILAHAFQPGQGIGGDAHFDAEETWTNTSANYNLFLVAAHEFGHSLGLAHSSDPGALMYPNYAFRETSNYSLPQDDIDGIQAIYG
Briefly: Assay for inhibitory activities on MMPs (fluorogenic peptide substrate), MMP-8.
Excerpt: In regard to MMP-8, catalytic domain (^99Phe˜^262Gly) was amplified with PCR using commercial available Human Bone Marrow cDNA. This was cloned in Escherichia coli expression vector pTrc99AHE inserted with His-tag sequence and enterokinase digestion-site, induced and expressed by IPTG (Isopropyl-β-D-thiogalactopyranoside) and expressed in a insoluble fraction (Than F. Ho, M. Walid Qoronfleh, Robert C. Wahl, Trica A. Pulvino, Karen J. Vavra, Joe Falvo, Tracey M. Banks, Patricia G. Brake and Richard B. Ciccarelli: Gene expression, purification and characterization of recombinant human neutrophil collagenase. Gene 146, (1994) 297-301. It was prepared by the method in a slight modification). Isolation of MMP-8 from an insoluble fraction was carried out by dissolving in modifier (6 M urea) by a usual method and purification with metal chelate chromatography. And then removing modifier (6 M urea) with dialysis and refolding of the enzyme spontaneously gave activated MMP-8.
as §1, §2, §3, §4, §5, §6, §7, §8, §9

Sequence of MMP-9 (P14780 107-707): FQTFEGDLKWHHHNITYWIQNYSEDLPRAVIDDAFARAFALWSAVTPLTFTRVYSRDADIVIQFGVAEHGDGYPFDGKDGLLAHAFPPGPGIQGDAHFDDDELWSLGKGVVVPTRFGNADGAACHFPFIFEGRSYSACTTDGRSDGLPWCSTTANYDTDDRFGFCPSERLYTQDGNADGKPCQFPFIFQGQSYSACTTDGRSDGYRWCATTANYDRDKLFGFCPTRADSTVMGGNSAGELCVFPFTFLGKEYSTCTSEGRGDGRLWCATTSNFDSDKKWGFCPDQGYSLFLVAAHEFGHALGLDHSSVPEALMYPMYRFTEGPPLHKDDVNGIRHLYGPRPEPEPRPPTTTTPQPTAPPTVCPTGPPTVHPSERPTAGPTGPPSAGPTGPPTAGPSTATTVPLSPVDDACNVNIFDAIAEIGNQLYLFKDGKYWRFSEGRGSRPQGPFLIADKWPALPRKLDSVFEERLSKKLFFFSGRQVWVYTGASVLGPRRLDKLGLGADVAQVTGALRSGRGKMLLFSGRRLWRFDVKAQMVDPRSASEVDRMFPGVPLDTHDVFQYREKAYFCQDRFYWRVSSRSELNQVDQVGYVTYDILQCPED

`COc1ccc2cc(C#Cc3ccc(-c4ccc(S(=O)(=O)N[C@@H](Cc5ccccc5)C(=O)O)cc4)cc3)ccc2c1` [III-29]: the IC50 (as a rule, the concentration needed to halve the response being measured) was 78.8 nM in experiment [1]; > 10000 nM in experiment [2]; > 10000 nM in experiment [3]; > 10 µM in experiment [4]; 5.3 µM in experiment [5].

`COc1ccc2cc(C#Cc3ccc(-c4ccc(S(=O)(=O)N[C@@H](Cc5c[nH]c6ccccc56)C(=O)O)cc4)cc3)ccc2c1` [III-31]: the IC50 is 20.1 nM in experiment [1]; > 10000 nM in experiment [2]; 901 nM in experiment [3]; > 10 µM in experiment [4]; 4.46 µM in experiment [5].

Regarding `COc1ccc2cc(C#Cc3ccc(-c4ccc(S(=O)(=O)N[C@H](CO)C(=O)O)cc4)cc3)ccc2c1` [III-44], the IC50 in experiment [1] is 3.49 nM; in experiment [2], 5010 nM; in experiment [3], 5290 nM; in experiment [4] it was > 10 µM; in experiment [5], > 10 µM.

Regarding `COc1ccc2cc(C#Cc3ccc(-c4ccc(S(=O)(=O)N[C@@H](CO)C(=O)O)cc4)cc3)ccc2c1` [III-45], the IC50 in experiment [1] was 19.3 nM; in experiment [2], > 10000 nM; in experiment [3], > 10000 nM; in experiment [4], > 10 µM; in experiment [5], > 10 µM.

Consider `COc1ccc2cc(C#Cc3ccc(-c4ccc(S(=O)(=O)NC(Cc5ccc(F)cc5)C(=O)O)cc4)cc3)ccc2c1` (stereo not shown) [III-47], for which the IC50 in experiment [1] was 143 nM; in experiment [2], > 10000 nM; in experiment [3], > 10000 nM; in experiment [4], > 10 µM; in experiment [5], > 10 µM.

With `COc1ccc(C[C@H](NS(=O)(=O)c2ccc(-c3ccc(C#Cc4ccc5cc(OC)ccc5c4)cc3)cc2)C(=O)O)cc1` [III-48], the IC50 is 100 nM in experiment [1]; > 10000 nM in experiment [2]; > 10000 nM in experiment [3]; > 10 µM in experiment [4]; > 10 µM in experiment [5].

Consider `COc1ccc2cc(C#Cc3ccc(-c4ccc(S(=O)(=O)N[C@H](CSC)C(=O)O)cc4)cc3)ccc2c1` [III-49], for which the IC50 in experiment [1] is 50.8 nM; in experiment [2], > 10000 nM; in experiment [3], 118 nM; in experiment [4], > 10 µM; in experiment [5], 0.109 µM.

`COCC(NS(=O)(=O)c1ccc(-c2ccc(C#Cc3ccc4cc(OC)ccc4c3)cc2)cc1)C(=O)O` (stereo not shown) [III-50]: the 50% inhibitory concentration (IC50) is 13.8 nM in experiment [1]; 50.6 nM in experiment [2]; 125 nM in experiment [3]; > 10 µM in experiment [4]; 0.243 µM in experiment [5].

In the case of `COc1ccc2cc(C#Cc3ccc(-c4ccc(S(=O)(=O)N[C@@H](C(=O)O)c5ccc(O)cc5)cc4)cc3)ccc2c1` [III-51], the IC50 is 128 nM in experiment [1]; > 10000 nM in experiment [2]; 536 nM in experiment [3]; > 10 µM in experiment [4]; 0.508 µM in experiment [5].

As to `O=C(Nc1ccc(-c2ccc(S(=O)(=O)N[C@H](Cc3ccccc3)C(=O)O)cc2)cc1)c1ccccc1` [VI-2], the IC50 in experiment [1] was 73.6 nM; in experiment [2], 371 nM; in experiment [3], > 10000 nM; in experiment [4] it was > 10 µM; in experiment [5], > 10 µM.

For the molecule `COc1ccc(C(=O)Nc2ccc(-c3ccc(S(=O)(=O)N[C@H](Cc4ccccc4)C(=O)O)cc3)cc2)cc1` [VI-3], the IC50 is 32.6 nM in experiment [1]; 239 nM in experiment [2]; 1100 nM in experiment [3]; > 10 µM in experiment [4]; > 10 µM in experiment [5].

As for `COc1cccc(C(=O)Nc2ccc(-c3ccc(S(=O)(=O)N[C@H](Cc4ccccc4)C(=O)O)cc3)cc2)c1` [VI-5], the IC50 in experiment [1] was 50.1 nM; in experiment [2], 660 nM; in experiment [3], 1230 nM; in experiment [4] it was > 10 µM; in experiment [5] it was 0.623 µM.

As to `O=C(Nc1ccc(-c2ccc(S(=O)(=O)N[C@H](Cc3ccccc3)C(=O)O)cc2)cc1)c1ccc(F)cc1` [VI-6], the IC50 is 39.4 nM in experiment [1]; 235 nM in experiment [2]; > 10000 nM in experiment [3]; > 10 µM in experiment [4]; > 10 µM in experiment [5].

On to `O=C(Nc1ccc(-c2ccc(S(=O)(=O)N[C@H](Cc3ccccc3)C(=O)O)cc2)cc1)c1cccs1` [VI-7], for which the IC50 in experiment [1] was 33.3 nM; in experiment [2], 156 nM; in experiment [3] it was 611 nM; in experiment [4] it was 4.34 µM; in experiment [5], 2.35 µM.

The values above are taken from patent US20080119513A1, “Sulfonamide Derivative Selectively Inhibiting Mmp-13” (priority 2004, published 2008).
